Source: patent publication US20160198747A1, “1H-PYRROLE-DICARBONYL-DERIVATIVES AND THEIR USE AS FLAVORING AGENTS” (IMAX DISCOVERY GMBH, priority 2013, published 2016)
Entries after “also recorded” stand apart in the source; their conditions may differ.

What was measured:
[1] = as described in US 2009/0311401; cited from earlier work
[2] = tested on: group of 16 trained panelists; assay: Sensory Test 2: trained panelists score a beef broth (bouillon) on eight descriptors; assay type: in vivo, human; conditions: scale 0 to 6, average of 16 panelists
Description: A group of 16 trained panelists was instructed to evaluate the taste of a broth (bouillon) containing 0.5 wt. % of beef extract (Ref-beef) according to eight different descriptors in several repetitions. In a next step, these panelists were asked to rate said reference beef broth “Ref-beef” (presented at each testing session as a reference) against the following two different compositions consisting of “Ref-beef” and additionally a specific amount of the respective to be tested substance:
“Beef-I”=“Ref-beef”+10 ppm of the compound of Formula (I) of Synthesis Example 1,
“Beef-MSG”=“Ref-beef”+500 ppm (0.05 wt. %) of MSG
“Beef-MSG” was used as a positive umami standard.
The panelists judged the strength/intensity of the eight different descriptors in each case by awarding scores on a scale of from 0 (not corresponding to descriptor) to 6 (very strong). The results are present in the following table and FIGURE. All data are the averaged values for the group of 16 trained panelists for the respective scores for each descriptor.

[3] = Sensory Test 3: Sip and Spit evaluation in water, bouillons, meat products and snacks; assay type: in vivo, human
Procedure: An additional sensory analysis was performed for the compound of Formula (I) of Synthesis Example 1, by “Sip and Spit” for all evaluations and the key results are summarized in the following table.

[4] = stability to heat and to day-light; assay type: physicochemical
[5] = tested on: expert panel (8 panelists); assay: Sensory Test 1: expert panel, aqueous solution, sipping, holding 10 seconds, spitting out; assay type: in vivo, human
Procedure: An expert panel (8 panelists) evaluated the sensory properties of the compound of Formula (I) of Synthesis Example 1. The compound of Formula (I) of Synthesis Example 1 was first dissolved in ethanol and then added in the corresponding amount in water. The aqueous solution was evaluated by sipping, holding it in the mouth for 10 seconds, and then spitting it out. The description “accumulating” means that the flavor perception gradually (further) increases a few seconds after taking the solution into the mouth, often even some time after the solution has been spit out.

[6] = tested on: human sensory panel; assay: human sensory panel (summary statement); assay type: in vivo
Description: (§1) A particularly preferred compound of the invention is 4-ethyl 2-pyridin-2-ylmethyl-3,5-dimethyl-1H-pyrrole-2,4-dicarboxylate. […] It performs as a MSG replacer at the concentration of 4-20 ppm, depending on the application, whereas at the concentration of 0.5-10 ppm, depending on the application, it performs as a MSG enhancer. The compound is not mutagenic in a standard in vitro Ames plate incorporation test in bacterial strains of Salmonella typhimurium either in the absence or presence of metabolic activation.

[7] = tested on: bacterial strains of Salmonella typhimurium; assay: in vitro Ames plate incorporation test; assay type: cell-based
Description: as §1

[8] = solubility; assay type: physicochemical
[9] = Beef-MSG = Ref-beef (broth, 0.5 wt. % beef extract) + 500 ppm (0.05 wt. %) MSG
[10] = Beef-I = Ref-beef (broth, 0.5 wt. % beef extract) + 10 ppm compound

For `CCNC(=O)O[C@H]1C[C@H](C)CC[C@H]1C(C)C` (racemic) [racemate of (1S,2S,5R)-2-isopropyl-5-methylcyclohexyl ethyl carbamate, (1S,2S,5R)-2-isopropyl-5-methylcyclohexyl ethyl carbamate], the flavor profile [1] is listed as “cooling, umami, menthol note”.
Compound `N[C@@H](CCC(=O)O)C(=O)[O-].[Na+]` [MSG, monosodium glutamate, reference compound] has a Long-lastingness score [2, 9] of 4.3, a Meaty score [2, 9] of 5.3 and a Mouth-watering score [2, 9] of 4.4. The Mouthfeel score [2, 9] was 4.8, the Roasty score [2, 9] was 3.8 and the Salty score [2, 9] was 2.5. It also gave a Sour score [2, 9] of 2.9 and a Sweet score [2, 9] of 2.1.
With `CCOC(=O)c1c(C)[nH]c(C(=O)OCc2ccccn2)c1C` [Synthesis Example 1, 3,5-dimethyl-1H-pyrrole-2,4-dicarboxylic acid, 4-ethyl 2-(2-pyridinylmethyl)ester] the “MSG ENHANCEMENT Chicken Bouillon + 0.01% MSG vs. 0.04% MSG, sensory description” value ([3]; 0.5 ppm in chicken bouillon + 0.01% MSG) was “warm, meaty; also recorded: fatty, slightly salty, round,; also recorded: slight sweet, good impact,”, the “Performance in Salted Water, sensory description” value ([3]; 3 ppm in salted water) was “clean, sweet umami, good” and the “Performance in Water, sensory description” value ([3]; 3 ppm in water) was “clean, sweet umami, good”. For the same compound, the “MSG REPLACEMENT Chicken Bouillon vs. 0.04% MSG, sensory description” value ([3]; 4 ppm in chicken bouillon) was “good, round, nice, clean”, the “MSG ENHANCEMENT Sour Cream & Onion Chips + 0.05% MSG vs. 0.4% MSG, sensory description” value ([3]; 6 ppm in sour cream & onion chips + 0.05% MSG) was “umami, pleasant, good” and the “MSG ENHANCEMENT Crackers + 0.03% MSG vs. 0.1% MSG, sensory description” value ([3]; 10 ppm in crackers + 0.03% MSG) was “umami, salivating, good”. The “MSG ENHANCEMENT Marinated Chicken + 0.05% MSG vs. 0.3% MSG, sensory description” value ([3]; 10 ppm in marinated chicken + 0.05% MSG) was “bad, eggy, white meat,; also recorded: malty”, the “MSG ENHANCEMENT Pork Burger + 0.03% MSG vs. 0.1% MSG, sensory description” value ([3]; 10 ppm in pork burger + 0.03% MSG) was “umami, sweet” and the “MSG REPLACEMENT Cocido Ham vs. 0.1% MSG, sensory description” value ([3]; 20 ppm in cocido ham) was “stronger, ok, meaty, sweet, and good”. The “MSG REPLACEMENT Marinated Chicken vs. 0.3% MSG, sensory description” value ([3]; 20 ppm in marinated chicken) was “meaty, umami balanced,; also recorded: seems salty”, the “MSG REPLACEMENT Sour Cream & Onion Chips vs. 0.4% MSG, sensory description” value ([3]; 20 ppm in sour cream & onion chips) was “umami balanced, pleasant,; also recorded: lingering, less salty, good,; also recorded: full, salivating, sweet, more; also recorded: creamy” and the “MSG ENHANCEMENT Chicken Bouillon + 0.01% MSG vs. 0.04% MSG, concentration” value ([3]; chicken bouillon + 0.01% MSG, vs. 0.04% MSG) was 0.5 ppm. For the same compound, the “MSG REPLACEMENT Chicken Bouillon vs. 0.04% MSG, concentration” value ([3]; chicken bouillon, vs. 0.04% MSG) was 4 ppm, the “MSG REPLACEMENT Cocido Ham vs. 0.1% MSG, concentration” value ([3]; cocido ham, vs. 0.1% MSG) was 20 ppm and the “MSG ENHANCEMENT Crackers + 0.03% MSG vs. 0.1% MSG, concentration” value ([3]; crackers + 0.03% MSG, vs. 0.1% MSG) was 10 ppm. For the same compound, the “concentration at which it performs as a MSG enhancer” value ([3]; depending on the application) was 0.5-10 ppm, the “concentration at which it performs as a MSG replacer” value ([3]; depending on the application) was 4-20 ppm and the “MSG ENHANCEMENT Marinated Chicken + 0.05% MSG vs. 0.3% MSG, concentration” value ([3]; marinated chicken + 0.05% MSG, vs. 0.3% MSG) was 10 ppm. For the same compound, the “MSG REPLACEMENT Marinated Chicken vs. 0.3% MSG, concentration” value ([3]; marinated chicken, vs. 0.3% MSG) was 20 ppm, the “MSG ENHANCEMENT Pork Burger + 0.03% MSG vs. 0.1% MSG, concentration” value ([3]; pork burger + 0.03% MSG, vs. 0.1% MSG) was 10 ppm and the “MSG REPLACEMENT Pork Burger vs. 0.1% MSG, concentration” value ([3]; pork burger, vs. 0.1% MSG) was 20 ppm. The “MSG ENHANCEMENT Sour Cream & Onion Chips + 0.05% MSG vs. 0.4% MSG, concentration” value ([3]; sour cream & onion chips + 0.05% MSG, vs. 0.4% MSG) was 6 ppm, the “MSG REPLACEMENT Sour Cream & Onion Chips vs. 0.4% MSG, concentration” value ([3]; sour cream & onion chips, vs. 0.4% MSG) was 20 ppm and the stability to day-light ([4]; day-light) was “stable”. The stability to heat ([4]; heat) was “stable”, the Long-lastingness score [2, 10] was 5.4 and the Meaty score [2, 10] was 5.5. For the same compound, the Mouth-watering score [2, 10] was 4.9, the Mouthfeel score [2, 10] was 5.5 and the Roasty score [2, 10] was 3.9. The Salty score [2, 10] was 2.7, the Sour score [2, 10] was 2.9 and the Sweet score [2, 10] was 1.5. For the same compound, the “Description of sensory effects” value ([5]; 3 ppm + 0.05 wt. % MSG in water) was “Strong umami, meaty, mouthfeel,; also recorded: mouth-watering”, the “Description of sensory effects” value ([5]; 3 ppm in water) was “Strong umami, slightly metallic,; also recorded: some delay but lingering” and the “Description of sensory effects” value ([5]; 30 ppm + 0.05 wt. % MSG in water) was “Umami, meaty, accumulating”. The “Description of sensory effects” value ([5]; 30 ppm in water) was “Strong umami, long lasting”, the “after-taste or off notes” value [6] was “No after-taste or off notes are perceived” and the taste perception ([6]; 3 ppm) was “very pleasant savory taste perception”. For the same compound, the “mutagenicity, Ames plate incorporation test” value ([7]; absence of metabolic activation) was “not mutagenic”, the “mutagenicity, Ames plate incorporation test” value ([7]; presence of metabolic activation) was “not mutagenic” and the solubility [8] was “good solubility”.
